# Test results: US11584747B2, “Substituted pyridopyrimidinonyl compounds useful as T cell activators” (BRISTOL-MYERS SQUIBB COMPANY, priority 2019, dated 2023)
# pEC50, pIC50: −log10 of the molar value. Like-named read-outs stand apart in the source and are kept apart here.
# Key:
# [1] = tested on: human venous whole blood (IFN-γ); assay: Human whole blood IFN-γ assay; type: cell-based; conditions: human whole blood, anti-CD3 plus anti-CD28 stimulation, 24 hours, read-out: IFN-γ Whole Blood EC50
# Procedure: Human venous whole blood (22.5 μL per well), obtained from healthy donors, was pre-treated with compounds for one hour at 37° C. in a humidified 95% air/5% CO2 incubator. The blood was stimulated with 2.5 μL anti-human CD3 and anti-CD28 mAb at a final concentration of 1 μg/mL each for 24 hours at 37° C. IFN-γ in the supernatants was measured using AlphLISA kit (Cat #AL217).
# human DGKα = human DGKα (Homo sapiens (Human), UniProt P23743); assay: DGKα ADPGLO assay (detergent/lipid micelle substrate); type: biochemical; conditions: ADPGLO assay; read-out: DGK alpha ADPGLO IC50
# Procedure: DGK Alpha ADPGLO (Truncated) IC50 (uM)
# The detergent/lipid micelle was prepared by combining 15 g phosphatidylserine (Avanti 840035P) and 1 g diacylglycerol (8008110) and dissolving into 150 mL chloroform in a 2 L round bottom flask. Chloroform was removed under high vacuum by rotary evaporation. […] The lipid/detergent solution was split into 5 mL aliquots and stored at −80° C.
# whole blood (pERK) = assay: pERK Whole Blood; type: cell-based
# human DGKζ = human DGKζ (Homo sapiens (Human), UniProt Q13574); assay: DGKζ LIPGLO assay (extruded liposome substrate, ADP-Glo luminescence); type: biochemical; conditions: liposome (LIPGLO) assay; read-out: DGK zeta (liposome assay) IC50
# Sequence of human DGKζ (Q13574 other isoform, or with tags, fused parts or gaps): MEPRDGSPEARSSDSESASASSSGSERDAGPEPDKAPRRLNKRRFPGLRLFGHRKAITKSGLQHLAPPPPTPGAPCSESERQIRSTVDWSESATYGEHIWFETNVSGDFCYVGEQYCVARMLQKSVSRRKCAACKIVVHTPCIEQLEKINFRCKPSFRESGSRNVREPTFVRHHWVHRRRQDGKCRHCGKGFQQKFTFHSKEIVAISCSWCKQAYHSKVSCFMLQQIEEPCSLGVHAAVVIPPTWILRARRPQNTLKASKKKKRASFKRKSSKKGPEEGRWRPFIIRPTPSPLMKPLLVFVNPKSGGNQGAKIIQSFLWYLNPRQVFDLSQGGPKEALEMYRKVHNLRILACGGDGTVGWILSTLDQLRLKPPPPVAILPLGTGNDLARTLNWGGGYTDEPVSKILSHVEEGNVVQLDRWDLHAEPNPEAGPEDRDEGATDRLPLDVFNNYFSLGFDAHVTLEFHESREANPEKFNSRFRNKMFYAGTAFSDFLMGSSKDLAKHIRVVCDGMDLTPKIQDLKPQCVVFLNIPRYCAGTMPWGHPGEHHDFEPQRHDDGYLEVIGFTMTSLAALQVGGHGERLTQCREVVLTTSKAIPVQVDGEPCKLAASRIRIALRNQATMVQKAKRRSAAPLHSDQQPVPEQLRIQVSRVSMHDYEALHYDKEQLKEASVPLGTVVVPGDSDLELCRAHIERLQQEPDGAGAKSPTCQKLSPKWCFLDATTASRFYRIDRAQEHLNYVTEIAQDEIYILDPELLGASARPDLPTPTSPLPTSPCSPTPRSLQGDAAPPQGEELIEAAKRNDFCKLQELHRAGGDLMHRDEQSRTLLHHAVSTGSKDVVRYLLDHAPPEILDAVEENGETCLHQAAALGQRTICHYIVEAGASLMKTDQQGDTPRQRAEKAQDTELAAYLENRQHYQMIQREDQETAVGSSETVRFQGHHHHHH
# Sequence of human DGKα (P23743 whole entry, looked up, the tested form may be a part): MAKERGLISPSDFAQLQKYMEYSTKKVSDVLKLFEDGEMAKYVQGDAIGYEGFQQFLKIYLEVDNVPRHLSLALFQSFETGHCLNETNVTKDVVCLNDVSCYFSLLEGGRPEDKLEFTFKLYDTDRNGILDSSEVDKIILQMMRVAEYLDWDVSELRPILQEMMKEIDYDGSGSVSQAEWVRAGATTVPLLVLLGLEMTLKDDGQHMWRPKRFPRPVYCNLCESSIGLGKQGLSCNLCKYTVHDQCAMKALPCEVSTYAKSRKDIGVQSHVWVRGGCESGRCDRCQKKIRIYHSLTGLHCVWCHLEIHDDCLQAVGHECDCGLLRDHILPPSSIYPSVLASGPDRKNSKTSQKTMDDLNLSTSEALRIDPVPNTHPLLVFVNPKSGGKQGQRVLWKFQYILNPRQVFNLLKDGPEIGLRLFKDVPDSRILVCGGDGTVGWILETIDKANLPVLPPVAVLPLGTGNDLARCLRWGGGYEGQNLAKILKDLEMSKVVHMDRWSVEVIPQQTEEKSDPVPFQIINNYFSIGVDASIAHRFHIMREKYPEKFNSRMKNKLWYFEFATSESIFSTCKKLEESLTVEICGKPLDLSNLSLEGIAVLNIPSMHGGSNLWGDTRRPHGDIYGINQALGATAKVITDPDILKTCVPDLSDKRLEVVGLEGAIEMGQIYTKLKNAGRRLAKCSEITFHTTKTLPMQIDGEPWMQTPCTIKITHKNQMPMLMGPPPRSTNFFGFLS
SMILES,"pEC50 ([1]; Homo sapiens, 24 h)",pIC50 (human DGKα),pEC50 (whole blood (pERK)),pIC50 (human DGKζ),pEC50 [1]
"CCC(c1ccc(OC(C)C)cc1)N1C[C@H](C)N(c2nc(=O)n(C)c3ccc(C#N)nc23)C[C@H]1CC (stereo partly drawn) [Example 333, 4-((2 S,5R)-5-ethyl-4-(1-(4-isopropoxyphenyl)propyl)-2-methylpiperazin-1-yl)-1-methyl-2-oxo-1,2-dihydropyrido[3,2-d]pyrimidine-6-carbonitrile]",–,7.05,7.00,7.14,6.92
"CC(c1ccc(CN2CCC(F)(F)CC2)cc1)N1C[C@H](C)N(c2nc(=O)n(C)c3ccc(C#N)nc23)C[C@H]1C (stereo partly drawn) [Example 391, 4-((2S,5R)-4-(1-(4-((4,4-difluoropiperidin-1-yl)methyl)phenyl)ethyl)-2,5-dimethylpiperazin-1-yl)-1-methyl-2-oxo-1,2-dihydropyrido[3,2-d]pyrimidine-6-carbonitrile]",–,5.69,5.95,5.87,6.14
"CCC(c1ccc(OCC2(C)CC2)cc1)N1C[C@H](C)N(c2nc(=O)n(C)c3ccc(C#N)nc23)C[C@H]1CC (stereo partly drawn) [Example 346, 4-((2S,5R)-5-ethyl-2-methyl-4-(1-(4-((1-methylcyclopropyl)methoxy)phenyl)propyl)piperazin-1-yl)-1-methyl-2-oxo-1,2-dihydropyrido[3,2-d]pyrimidine-6-carbonitrile]",–,5.89,6.72,5.91,–
"CCC(c1ccc(OCCC2CC2)cc1)N1C[C@H](C)N(c2nc(=O)n(C)c3ccc(C#N)nc23)C[C@H]1CC (stereo partly drawn) [Example 340, 4-((2S,5R)-4-(1-(4-(2-cyclopropylethoxy)phenyl)propyl)-5-ethyl-2-methylpiperazin-1-yl)-1-methyl-2-oxo-1,2-dihydropyrido[3,2-d]pyrimidine-6-carbonitrile]",–,5.20,4.89,4.80,–
"CCC(c1ccc(OCC2CCOCC2)cc1)N1C[C@H](C)N(c2nc(=O)n(C)c3ccc(C#N)nc23)C[C@H]1CC (stereo partly drawn) [Example 337, 4-((2S,5R)-5-ethyl-2-methyl-4-(1-(4-((tetrahydro-2H-pyran-4-yl)methoxy)phenyl)propyl)piperazin-1-yl)-1-methyl-2-oxo-1,2-dihydropyrido[3,2-d]pyrimidine-6-carbonitrile]",–,7.09,7.27,7.00,–
"CCC(c1ccc(OCC2COC2)cc1)N1C[C@H](C)N(c2nc(=O)n(C)c3ccc(C#N)nc23)C[C@H]1CC (stereo partly drawn) [Example 342, 4-((2S,5R)-5-ethyl-2-methyl-4-(1-(4-(oxetan-3-ylmethoxy)phenyl)propyl)piperazin-1-yl)-1-methyl-2-oxo-1,2-dihydropyrido[3,2-d]pyrimidine-6-carbonitrile]",–,5.96,5.10,5.92,–
"CCC(c1c(F)cc(OCC2CC2)cc1F)N1C[C@H](C)N(c2nc(=O)n(C)c3ccc(C#N)nc23)C[C@H]1CC (stereo partly drawn) [Example 328, 4-((2S,5R)-4-(1-(4-(cyclopropylmethoxy)-2,6-difluorophenyl)propyl)-5-ethyl-2-methylpiperazin-1-yl)-1-methyl-2-oxo-1,2-dihydropyrido[3,2-d]pyrimidine-6-carbonitrile]",–,5.53,4.70,5.65,–
"CCC(c1ccc(C(C)(C)C#N)cc1)N1C[C@H](C)N(c2nc(=O)n(C)c3ccc(C#N)nc23)C[C@H]1CC (stereo partly drawn) [Example 317, 4-((2S,5R)-4-(1-(4-(2-cyanopropan-2-yl)phenyl)propyl)-5-ethyl-2-methylpiperazin-1-yl)-1-methyl-2-oxo-1,2-dihydropyrido[3,2-d]pyrimidine-6-carbonitrile]",–,7.77,6.74,7.59,–
"CCC1CN(c2nc(=O)n(C)c3ccc(C#N)nc23)[C@@H](C)CN1C(C)c1ccc(C(F)(F)F)c(CN2CCOCC2)c1 (single isomer, unassigned) [Example 350]",–,6.74,5.47,6.92,–
"CCC(c1ccc(OCC2COC2)cc1)N1C[C@H](C)N(c2nc(=O)n(C)c3ccc(C#N)nc23)C[C@H]1CC (stereo partly drawn) [Example 341, 4-((2S,5R)-5-ethyl-2-methyl-4-(1-(4-(oxetan-3-ylmethoxy)phenyl)propyl)piperazin-1-yl)-1-methyl-2-oxo-1,2-dihydropyrido[3,2-d]pyrimidine-6-carbonitrile]",–,7.21,5.53,6.89,–
"CC[C@@H]1CN(c2nc(=O)n(C)c3ccc(C#N)nc23)[C@@H](C)CN1C(c1ccc(OC)cc1)C(C)C (stereo partly drawn) [Example 313, 4-((2S,5R)-5-ethyl-4-(1-(4-methoxyphenyl)-2-methylpropyl)-2-methylpiperazin-1-yl)-1-methyl-2-oxo-1,2-dihydropyrido[3,2-d]pyrimidine-6-carbonitrile]",–,6.64,7.24,6.19,–
"CCC(c1ccc(OCCC2CC2)cc1)N1C[C@H](C)N(c2nc(=O)n(C)c3ccc(C#N)nc23)C[C@H]1CC (stereo partly drawn) [Example 339, 4-((2S,5R)-4-(1-(4-(2-cyclopropylethoxy)phenyl)propyl)-5-ethyl-2-methylpiperazin-1-yl)-1-methyl-2-oxo-1,2-dihydropyrido[3,2-d]pyrimidine-6-carbonitrile]",–,7.12,6.55,7.10,–
"CC(c1ccc(CN2C[C@@H](C)O[C@@H](C)C2)cc1)N1C[C@H](C)N(c2nc(=O)n(C)c3ccc(C#N)nc23)C[C@H]1C (stereo partly drawn) [Example 389, 4-((2S,5R)-4-(1-(4-(((2S,6R)-2,6-dimethylmorpholino)methyl)phenyl)ethyl)-2,5-dimethylpiperazin-1-yl)-1-methyl-2-oxo-1,2-dihydropyrido[3,2-d]pyrimidine-6-carbonitrile]",–,6.00,6.43,5.09,–
"CCC(c1nc(C2CC2)no1)N1C[C@H](CC)N(c2nc(=O)n(C)c3ccc(C#N)nc23)C[C@H]1CC (stereo partly drawn) [Example 364, 4-((2S,5R)-4-(1-(3-cyclopropyl-1,2,4-oxadiazol-5-yl)propyl)-2,5-diethylpiperazin-1-yl)-1-methyl-2-oxo-1,2-dihydropyrido[3,2-d]pyrimidine-6-carbonitrile]",–,7.28,5.74,6.48,–

# More lines, now with the values ahead:
"pEC50 ([1]; Homo sapiens, 24 h)",pIC50 (human DGKα),pEC50 (whole blood (pERK)),pIC50 (human DGKζ),pEC50 [1],SMILES
4.70,3.60,4.70,3.60,–,"CC[C@H]1CN(C(C)c2ccc(C(F)(F)F)cc2)[C@H](CC)CN1c1nc(=O)n(C)c2ccc(OCCN(C)C)nc12 (stereo partly drawn) [Example 431, 4-((2S,5R)-2,5-diethyl-4-(1-(4-(trifluoromethyl)phenyl)ethyl)piperazin-1-yl)-6-(2-(dimethylamino)ethoxy)-1-methylpyrido[3,2-d]pyrimidin-2(1H)-one]"
–,5.72,5.14,5.26,5.38,"CCC(c1ccc(C(F)(F)F)cc1)N1C[C@H](CC)N(c2nc(=O)n(C)c3ccc(OC)nc23)C[C@H]1CC (stereo partly drawn) [Example 435, 4-((2S,5R)-2,5-diethyl-4-(1-(4-(trifluoromethyl)phenyl)propyl)piperazin-1-yl)-6-methoxy-1-methylpyrido[3,2-d]pyrimidin-2(1H)-one]"
–,6.80,4.70,6.15,–,"CCC(c1ccc(C(F)(F)F)cc1)N1C[C@H](C)N(c2nc(=O)n(C)c3ccc(C#N)nc23)C[C@H]1COC (single isomer, unassigned) [Example 399]"
–,4.63,5.46,3.90,–,"CC(c1ccc(CN2CC3(COC3)C2)cc1)N1C[C@H](C)N(c2nc(=O)n(C)c3ccc(C#N)nc23)C[C@H]1C (stereo partly drawn) [Example 393, 4-((2S,5R)-4-(1-(4-((2-oxa-6-azaspiro[3.3]heptan-6-yl)methyl)phenyl)ethyl)-2,5-dimethylpiperazin-1-yl)-1-methyl-2-oxo-1,2-dihydropyrido[3,2-d]pyrimidine-6-carbonitrile]"
–,7.14,4.70,5.97,–,"COC[C@H]1CN(C(C)c2ccc(C(F)(F)F)cc2)[C@H](C)CN1c1nc(=O)n(C)c2ccc(C#N)nc12 (single isomer, unassigned) [Example 409]"
–,6.80,5.31,6.64,–,"CCOC[C@@H]1CN(c2nc(=O)n(C)c3ccc(C#N)nc23)[C@@H](C)CN1C(CC)c1ccc(C(F)(F)F)cc1 (stereo partly drawn) [Example 401, 4-((2S,5S)-5-(ethoxymethyl)-2-methyl-4-(1-(4-(trifluoromethyl)phenyl)propyl)piperazin-1-yl)-1-methyl-2-oxo-1,2-dihydropyrido[3,2-d]pyrimidine-6-carbonitrile]"
–,6.09,5.72,5.91,–,"CC[C@@H]1CN(c2nc(=O)n(C)c3ccc(C#N)nc23)[C@@H](CO)CN1C(C)c1ccc(C(F)(F)F)cc1 (single isomer, unassigned) [Example 411]"
–,6.85,5.50,6.13,–,"CCC(c1ccc(C(F)(F)F)cc1)N1C[C@H](CC)N(c2nc(=O)[nH]c3ccc(C#N)nc23)C[C@H]1CC (stereo partly drawn) [Example 416, 4-((2S,5R)-2,5-diethyl-4-(1-(4-(trifluoromethyl)phenyl)propyl)piperazin-1-yl)-2-oxo-1,2-dihydropyrido[3,2-d]pyrimidine-6-carbonitrile]"
–,7.48,4.70,7.26,–,"[2H]C([2H])([2H])n1c(=O)nc(N2C[C@@H](CC)N(C(C)c3ccc(C(F)(F)F)cc3)C[C@@H]2C)c2nc(C#N)ccc21 (single isomer, unassigned) [Example 419]"
